Measurements taken from patent US20240069001A1, “ADAPTIVE PERFUSION SYSTEMS AND METHODS FOR DRUG RELEASE TESTING” (The United States of America, as represented by the …, priority 2020, published 2024).

How the values were obtained:
Assay type in all cases: physicochemical
[1] = Reverse-dialysis release/diffusion of pure difluprednate solution (USP 2 apparatus, 100 kD MWCO dialysis tubes); conditions: pH 7.4 phosphate buffer:ethanol 80:20, 34° C.
Description: Release of difluprednate from pure drug solution was studied using a reverse-dialysis setup, where drug was transferred from outside a dialysis device to the inside. As compared to a dialysis configuration, the reverse-dialysis configuration provides an advantage in terms of allowing for better control of dilution and maximum drug concentration gradient across oil/water interface to drive the drug release. Diffusion of difluprednate through dialysis membrane was determined in a USP 2 apparatus setup (Vision Elite 8, Teledyne Hanson Research, with mini-vessels 800) using commercially available dialysis tubes 808 (Float-A-Lyzer G2, 100 kD MWCO, regenerated cellulose, Spectrum Labs, CA, USA), as shown in FIG. 8A. Each dialysis tube 808 was cleaned with 1.0% w/v polysorbate-80 solution in deionized water and subsequently washed thoroughly with deionized water. Dialysis tubes 808, containing about 1 mL of the release media (i.e., 10 mM pH 7.4 phosphate buffer mixed with ethanol in the ratio of 80:20 v/v), were suspended inside the USP 2 mini-vessels 800. Agitation was controlled at 100 rpm and the temperature was maintained at 34° C. Using conduit 806, 1 mL of difluprednate solution (1 mg/mL in ethanol) was spiked directly into the vessel 800, which contained 200 mL release media 802, in order to achieve an initial drug concentration of 5 μg/mL.
(§1) Within dialysis tube 808, difluprednate concentration (e.g., drug that had diffused through the membrane filter of dialysis device 808) was monitored in real time using an in-situ fiber optic probe 804, in particular a fiber optic UV-Vis system (Pion μDiss Profiler™, Billerica, MA). The scanning frequency was once every minute for the first 6 hours, then it switched to once every 5 minutes for the next 18 hours. After first 24 hours, the scanning frequency was changed to once every 10 minutes for the next 40 hours. For the last 104 hours, the scanning frequency was once every 30 min. The total experimental time was 168 hours (7 days). Pure difluprednate solution diluted with release medium at the same concentration of 5 μg/mL was also monitored in parallel as a control to determine any possible change in drug concentration, e.g., due to degradation. Prior to the start of the experiment, UV signals were calibrated using various concentrations of difluprednate standard solutions (0.05, 0.10, 0.50, 1.00, 2.00, 3.00, 4.00, and 6.00 μg/mL). Zero Intercept Method (ZIM) analysis was performed to remove polysorbate-80 interference by using wavelength within the range of 271-274 nm (exact ZIM wavelength varied between probes). Ethanol was used as a co-solvent to prevent the precipitation of difluprednate in the release media.

[2] = Control: pure difluprednate solution diluted with release medium, monitored for degradation; conditions: control sample, at 24 hrs; 5 μg/mL in release medium; n=1
Description: as §1

[3] = Adaptive perfusion (AP) IVRT with 100 kD MWCO mPES hollow fiber filter; conditions: AP method
Source text: The setup 1000 includes a fresh media reservoir 1002, a particulate filtering device 1004 attached to the fresh media tubing (to prevent particulate contamination), two peristaltic pumps (a first pump 1014 for the sample feed and a second pump 1006 for the fresh media), two additional reservoirs (a first reservoir 1008 for the retentate (also called the feed reservoir) and a second reservoir 1038 for the permeate (also called the permeate reservoir)), a pre-conditioned TFF filter (in particular, an HFF 1020, with first port 1022 and second port 1024 connected to a retentate volume and third port 1032 and fourth port 1040 connected to a permeate volume), a backpressure controlling valve 1028, a magnetic stirrer 1010, a stir plate 1012 for mixing the sample with the media, a pressure monitoring system with three pressure sensors (inlet sensor 1018, retentate sensor 1026, and permeate sensor 1034), a mass flow monitoring system (e.g., flow-meter 1036), a data acquisition system (e.g., computer with software), and a fluid circuit 1030 (e.g., tubing) for interconnecting the various components. HFF 1020 was a Spectrum MicroKros®, 100 kD MWCO, modified polyether sulfone (mPES) membrane, 20 cm^2 surface area (Repligen Corporation, CA, USA). An initial drug product sample of a particular concentration and/or volume was manually spiked into the first reservoir 1008 using conduit 1016.
Pure difluprednate solution and difluprednate polysorbate-80 micelles was evaluated using the setup 1000 of FIG. 10. For pure difluprednate solution, 200 μL of difluprednate solution (1 mg/mL in ethanol) was spiked (via conduit 1016) into 40 mL of release media (10 mM pH 7.4 phosphate buffer mixed with ethanol in the ratio of 80:20 v/v) in reservoir 1008 to reach an initial difluprednate concentration of 5 μg/mL. Ethanol was used as a co-solvent to prevent the precipitation of difluprednate in the media. Difluprednate concentrations in the retentate reservoir 1008 and permeate reservoir 1038 were determined in real time using an in-situ fiber optic UV-Vis system (Pion μDiss Profiler™, Billerica, MA). ZIM analysis was performed to remove polysorbate-80 interference by using wavelength within the range of 271-274 nm (exact ZIM wavelength varied between probes). For difluprednate polysorbate-80 micelles, 1 mL of difluprednate polysorbate-80 micelle solution (100 μg/mL in 3.6% w/v polysorbate-80) was spiked (via conduit 1016) into 40 mL of the release media (10 mM pH 7.4 phosphate buffer) in reservoir 1008 to obtain an initial difluprednate concentration of 2.5 μg/mL. Aliquots of retentate and permeate were collected periodically from the retentate reservoir 1008 and from the permeate tubing (between third port 1032 and permeate reservoir 1038), respectively, and subjected to UPLC analysis to determine difluprednate concentration. Appropriate dilution was performed for the retentate aliquots by using acetonitrile prior to UPLC analysis. The study was conducted at ambient room temperature (i.e., 23.5±1.5° C.).
Several TFF hollow fiber filter modules having different MWCO of 30 kD, 100 kD, 300 kD and 500 kD (Spectrum MicroKros®, modified polyether sulfone (mPES) membrane, 20 cm^2 surface area, Repligen Corporation, CA, USA) were screened initially to select an optimal MWCO for the TFF filter for performing the in vitro release studies. 100 kD MWCO was eventually selected considering the range of globule sizes to be evaluated for the nanoemulsions. 200 μL of nanoemulsion was spiked (via conduit 1016) directly into 40 mL of media (10 mM pH 7.4 phosphate buffer) in reservoir 1008 to provide an initial concentration of 2.5 μg/mL for difluprednate. Aliquots of retentate and permeate were collected periodically from the retentate reservoir 1008 and from the permeate tubing (between outlet 1031 and 1038), respectively, and subjected to UPLC analysis to determine difluprednate concentration. […]

CCCC(=O)O[C@]1(C(=O)COC(C)=O)CC[C@H]2[C@@H]3C[C@H](F)C4=CC(=O)C=C[C@]4(C)[C@@]3(F)[C@@H](O)C[C@@]21C [Pure drug (DFP) solution, Difluprednate]
drug diffused at plateau ([1]; 100 kD MWCO): about 75%
time for difluprednate concentration to reach plateau ([1]; 100 kD MWCO): ~8 h
time for 50% of difluprednate to diffuse across the dialysis membrane ([1]; 100 kD MWCO, 100 rpm, 5 μg/mL): more than 3 hours
time after which decrease in difluprednate concentration was observed (degradation in alkaline media) ([1]; inside dialysis tube): about 10 hours
pure drug remaining in the bulk media [2]: 85%
time to reach 90% of drug release ([3]; permeate (FIG. 12A)): less than 15 minutes
Permeate Maximum Drug Release ([3]; Mean ± SD, n = 3): 93.7 ± 5.5%
Permeate t50 ([3]; Mean ± SD, n = 3): 5.3 ± 0.6 min
Permeate k* (first-order rate constant) ([3]; Q = 100*(1 − e^−k*t), Mean ± SD, n = 3, room temperature): 0.146 ± 0.018 min⁻¹
Retentate k* (first-order rate constant) ([3]; Q = 100*e^−k*t, Mean ± SD, n = 3, room temperature): 0.211 ± 0.056 min⁻¹
difluprednate transferred across the membrane (into the permeate) ([3]; in less than 15 minutes): more than 90%
